Consider three compounds from BindingDB's records for patent US20230382915 (Deciphera Pharmaceuticals, 2023).

Experiment [1] addresses T1, Eukaryotic translation initiation factor 2-alpha kinase 3 (Homo sapiens, UniProt Q9NZJ5).
T1 sequence (Q9NZJ5 whole entry): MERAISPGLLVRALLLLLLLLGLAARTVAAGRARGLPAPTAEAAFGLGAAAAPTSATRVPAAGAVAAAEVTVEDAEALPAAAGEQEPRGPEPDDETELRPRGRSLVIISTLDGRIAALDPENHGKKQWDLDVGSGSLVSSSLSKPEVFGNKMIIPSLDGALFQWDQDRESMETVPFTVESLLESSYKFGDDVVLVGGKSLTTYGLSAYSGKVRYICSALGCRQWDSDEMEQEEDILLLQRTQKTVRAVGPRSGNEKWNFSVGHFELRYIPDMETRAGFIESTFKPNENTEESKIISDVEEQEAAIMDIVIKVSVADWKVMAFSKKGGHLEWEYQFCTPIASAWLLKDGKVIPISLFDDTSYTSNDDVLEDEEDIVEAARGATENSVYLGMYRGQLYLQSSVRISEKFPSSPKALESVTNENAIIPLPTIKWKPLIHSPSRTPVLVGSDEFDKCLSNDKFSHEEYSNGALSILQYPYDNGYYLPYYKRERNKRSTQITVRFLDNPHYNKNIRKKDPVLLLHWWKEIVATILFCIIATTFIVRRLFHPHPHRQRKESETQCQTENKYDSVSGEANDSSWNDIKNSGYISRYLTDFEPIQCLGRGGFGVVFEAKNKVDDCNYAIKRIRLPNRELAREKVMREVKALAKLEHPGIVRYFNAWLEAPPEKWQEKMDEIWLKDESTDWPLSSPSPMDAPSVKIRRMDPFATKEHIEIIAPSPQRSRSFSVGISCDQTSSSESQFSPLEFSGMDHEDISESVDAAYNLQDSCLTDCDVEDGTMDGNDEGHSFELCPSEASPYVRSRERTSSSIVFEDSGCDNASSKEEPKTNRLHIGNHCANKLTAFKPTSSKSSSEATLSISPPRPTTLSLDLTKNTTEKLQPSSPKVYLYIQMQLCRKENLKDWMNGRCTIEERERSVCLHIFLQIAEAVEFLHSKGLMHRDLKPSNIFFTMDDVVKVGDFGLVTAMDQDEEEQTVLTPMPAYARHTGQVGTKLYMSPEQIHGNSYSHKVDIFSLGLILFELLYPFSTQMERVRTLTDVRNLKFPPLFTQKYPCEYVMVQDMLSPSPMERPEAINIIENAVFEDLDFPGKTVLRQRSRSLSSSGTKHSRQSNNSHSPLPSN
Description: Biochemical Assay for PERK. On the procedure: Activity of PERK kinase was determined spectroscopically using a coupled pyruvate kinase/lactate dehydrogenase assay that continuously monitors the ATP hydrolysis-dependent oxidation of NADH (e.g., Schindler et al. Science (2000) 289: 1938-1942). Assays were conducted in 384-well plates ([…] final volume) using 10 nM PERK (from Beryllium), 0.25 mg/mL Myelin Basic Protein substrate, 1.5 units pyruvate kinase, 2.1 units lactate dehydrogenase, 1 mM phosphoenol pyruvate, 0.28 mM NADH and 1 mM ATP in assay buffer (100 mM Tris, pH 7.5, 15 mM MgCl2, 0.5 mM DTT, 0.004% (w/v) BSA, and 0.004% Triton X-100). Inhibition of PERK was measured by adding serial diluted test compound (final assay concentration of 1% DMSO). A decrease in absorption at 340 nm was monitored continuously for 6 hours at 30° C. on a multi-mode microplate reader (BioTek). The reaction rate was calculated using the 2-3 h time frame. The reaction rate at each concentration of compound was converted to percent inhibition using controls (i.e., reaction with no test compound and reaction with a known inhibitor) and IC50 values were calculated using software routines in Prism (GraphPad software).

Another experiment deals with eIF-2-alpha kinase GCN2 (Homo sapiens, UniProt Q9P2K8). Kind of experiment: Biochemical Assay for GCN2. The procedure: Activity of GCN2 kinase was determined using a TR-FRET kinase activity assay (e.g. Riddle et al. Analytical Biochemistry (2006) 356(1) 108-116). Assays were conducted in 384-well plates (13 μL assay volume) using 2 nM GCN2 (Carna Biosciences), 130 nM GFP-EIf2α (Invitrogen), 0.2 mg/mL E. coli tRNA (sigma) and 1 mM ATP in kinase buffer (Invitrogen). Inhibition of GCN2 was measured by adding serial diluted test compound (final assay concentration of 0.5% DMSO) followed by a 3-hour incubation. Tb-peIF2α (pSer52) antibody (Invitrogen) (2 nM final assay concentration) in kinase buffer containing EDTA (final assay concentration of 20 mM) was added. After a 60 min incubation at room temperature, TR-FRET was monitored using an excitation wavelength of 340 nm and emission wavelengths of 490 nm and 520 nm. The emission ratio (520/490) at each compound concentration of was converted to percent inhibition using controls (i.e., reaction with no test compound and reaction with a known inhibitor) and IC50 values were calculated by fitting a four-parameter sigmoidal curve to the data using Prism (GraphPad software).
Sequence of eIF-2-alpha kinase GCN2 (Q9P2K8 whole entry): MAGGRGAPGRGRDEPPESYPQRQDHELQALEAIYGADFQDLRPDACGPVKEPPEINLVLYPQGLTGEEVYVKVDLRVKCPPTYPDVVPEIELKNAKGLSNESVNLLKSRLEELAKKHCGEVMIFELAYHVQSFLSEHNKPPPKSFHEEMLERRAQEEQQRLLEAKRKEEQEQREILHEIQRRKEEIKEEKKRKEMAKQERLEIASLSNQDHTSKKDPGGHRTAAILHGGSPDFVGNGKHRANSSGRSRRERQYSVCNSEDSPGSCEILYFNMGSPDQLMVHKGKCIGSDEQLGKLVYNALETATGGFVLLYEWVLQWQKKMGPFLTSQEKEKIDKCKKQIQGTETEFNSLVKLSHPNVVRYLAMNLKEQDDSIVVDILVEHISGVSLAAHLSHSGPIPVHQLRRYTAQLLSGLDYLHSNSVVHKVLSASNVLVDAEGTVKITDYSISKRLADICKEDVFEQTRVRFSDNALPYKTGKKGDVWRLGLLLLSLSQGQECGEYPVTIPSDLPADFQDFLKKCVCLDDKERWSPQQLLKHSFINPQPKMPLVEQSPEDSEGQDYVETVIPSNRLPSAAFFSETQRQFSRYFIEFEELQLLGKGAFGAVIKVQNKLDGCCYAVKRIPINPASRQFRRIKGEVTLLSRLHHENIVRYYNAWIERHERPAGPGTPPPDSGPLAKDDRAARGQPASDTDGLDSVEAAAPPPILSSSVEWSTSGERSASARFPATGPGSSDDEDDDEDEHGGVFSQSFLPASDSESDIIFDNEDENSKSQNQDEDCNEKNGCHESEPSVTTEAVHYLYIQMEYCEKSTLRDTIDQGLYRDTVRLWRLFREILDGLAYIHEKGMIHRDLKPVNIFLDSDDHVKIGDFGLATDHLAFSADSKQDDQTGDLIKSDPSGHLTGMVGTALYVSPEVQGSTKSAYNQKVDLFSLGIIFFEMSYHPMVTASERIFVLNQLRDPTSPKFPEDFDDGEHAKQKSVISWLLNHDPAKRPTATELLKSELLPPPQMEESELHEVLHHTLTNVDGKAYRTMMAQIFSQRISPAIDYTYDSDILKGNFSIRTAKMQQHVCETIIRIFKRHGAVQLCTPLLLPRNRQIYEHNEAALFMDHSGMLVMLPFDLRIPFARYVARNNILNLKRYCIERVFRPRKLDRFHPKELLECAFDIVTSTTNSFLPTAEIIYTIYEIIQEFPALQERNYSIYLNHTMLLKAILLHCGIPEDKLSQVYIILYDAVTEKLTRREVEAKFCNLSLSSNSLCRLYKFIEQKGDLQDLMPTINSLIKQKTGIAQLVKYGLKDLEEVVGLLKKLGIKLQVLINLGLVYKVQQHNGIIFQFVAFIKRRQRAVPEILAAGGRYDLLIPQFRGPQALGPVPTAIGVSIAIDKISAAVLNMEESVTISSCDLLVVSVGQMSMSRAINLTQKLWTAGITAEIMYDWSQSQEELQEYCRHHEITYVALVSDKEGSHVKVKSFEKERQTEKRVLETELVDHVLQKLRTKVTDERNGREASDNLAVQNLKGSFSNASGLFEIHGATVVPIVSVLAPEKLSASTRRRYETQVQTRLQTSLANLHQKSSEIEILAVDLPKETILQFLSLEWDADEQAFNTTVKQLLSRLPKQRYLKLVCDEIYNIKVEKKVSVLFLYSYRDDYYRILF

Molecules are shown by their SMILES.

The compound `Nc1nccc2scc(-c3cccc(NS(=O)(=O)c4cc(Cl)cc(CO)c4Cl)c3F)c12` [US20230382915, Example 11] came in with an IC50 in experiment [1] of under 100 nM. As for `Nc1nccc2occ(-c3cccc(NS(=O)(=O)c4cc(Cl)cc(CO)c4Cl)c3F)c12` [US20230382915, Example 12], the half-inhibitory concentration (IC50) in experiment [1] is under 100 nM. Regarding `CN1CCC(n2cc(-c3cccc(NS(=O)(=O)c4cc(Cl)cc(CO)c4Cl)c3F)c3c(N)ncnc32)CC1` [US20230382915, Example 17], the IC50 (against eIF-2-alpha kinase GCN2; in experiment [1]) was under 100 nM throughout.

For orientation: IC50 means the concentration that gives 50% inhibition. Lower therefore signals inhibition by little substance.
